Experimental data reported in patent US7214792B2 (priority 1999, dated 2007).

Each compound was assayed on LAB-1 (assay: Antibiotic sensitivity testing of LAB-1). Conditions: LAB-1 organism.
Assay type: cell-based
Procedure: A variety of biochemical tests were performed in order to identify the species and the genus of organism. The tests included: assessment of growth conditions, culture appearance, cell appearance and staining characteristics, optimal temperature and pH growth range, oxygen requirements, antibiotic sensitivity testing, tests for catalase and oxidase (using TAXOS N ? disks), amino acid utilization as carbon source, nitrogen fixation, motility test, and a variety of commercially available tests from MICRO-ID ? , OXYFERM ? , ENTEROTUBE ? and BIOLOG GN MICROPLATE ? .

Row | Compound | Antibiotic Susceptibility Results
1 | NCC[C@H](O)C(=O)N[C@@H]1C[C@H](N)[C@@H](O[C@H]2O[C@H](CN)[C@@H](O)[C@H](O)[C@H]2O)[C@H](O)[C@H]1O[C@H]1O[C@H](CO)[C@@H](O)[C@H](N)[C@H]1O [Amikacin] | sensitive
2 | CC1(C)S[C@@H]2[C@H](NC(=O)[C@H](N)c3ccccc3)C(=O)N2[C@H]1C(=O)O [Ampicillin] | resistant
3 | CC[C@H]1OC(=O)[C@H](C)[C@@H](O[C@H]2C[C@@](C)(OC)[C@@H](O)[C@H](C)O2)[C@H](C)[C@@H](O[C@@H]2O[C@H](C)C[C@H](N(C)C)[C@H]2O)[C@](C)(O)C[C@@H](C)C(=O)[C@H](C)[C@@H](O)[C@]1(C)O [Erythromycin] | resistant
4 | CO[C@@H]1[C@@H](OC(N)=O)[C@@H](O)[C@H](Oc2ccc3c(O)c(NC(=O)c4ccc(O)c(CC=C(C)C)c4)c(=O)oc3c2C)OC1(C)C [Novobiocin] | sensitive
5 | [H]/N=C(/N)N[C@H]1[C@H](O)[C@@H](O)[C@H](O[C@@H]2O[C@@H](C)[C@](O)(C=O)[C@H]2O[C@@H]2O[C@@H](CO)[C@H](O)[C@@H](O)[C@@H]2NC)[C@@H](N/C(N)=N\[H])[C@@H]1O [Streptomycin] | resistant
6 | Neomycin | sensitive
7 | Penicillin | resistant
8 | Polymyxin B | sensitive
